Laboratory results published in US20060161001A1, “Substituted heterocyclic compounds and methods of use” (Amgen Inc., priority 2004, published 2006).
pIC50: −log10 of the molar value.

Each compound was assayed on LPS induced TNF release (assay: THP1 cell assay (LPS induced TNF release)). Settings: Homo sapiens, THP-1; THP1 cells, LPS induced TNF-α secretion, 3 h at 37° C.
Assay type: cell-based
Protocol: Lipopolysaccharide-Activated THP1 Cell TNF Production Assay
THP1 cells are resuspended in fresh THP1 media (RPMI 1640, 10% heat-inactivated FBS, 1XPGS, 1XNEAA, plus 30 μM OME) at a concentration of 1E6/mL. One hundred microliters of cells per well are plated in a polystyrene 96-well tissue culture. One microgram per mL of bacterial LPS is prepared in THP1 media and is transferred to the wells. Test compounds are dissolved in 100% DMSO and are serially diluted 3-fold in a polypropylene 96-well microtiter plate (drug plate). HI control and LO control wells contain only DMSO. One microliter of test compound from the drug plate followed by 10 μL of LPS are transferred to the cell plate. The treated cells are induced to synthesize and secrete TNF-α at 37° C. for 3 h. Forty microliters of conditioned media are transferred to a 96-well polypropylene plate containing 110 μL of ECL buffer (50 mM Tris-HCl pH 8.0, 100 mM NaCl, 0.05% Tween 20, 0.05% NaN3 and 1% FBS) supplemented with 0.44 nM MAB610 monoclonal Ab (R&D Systems), 0.34 nM ruthenylated AF210NA polyclonal Ab (R&D Systems) and 44 μg/mL sheep anti-mouse M280 Dynabeads (Dynal). After a 2 h incubation at RT with shaking, the reaction is read on the ECL M8 Instrument (IGEN Inc.). A low voltage is applied to the ruthenylated TNF-α immune complexes, which in the presence of TPA (the active component in Origlo), results in a cyclical redox reaction generating light at […]. The amount of secreted TNF-α in the presence of compound compared with that in the presence of DMSO vehicle alone (HI control) is calculated using the formula: % control (POC)=(cpd−average LO)/(average HI−average LO)*100. Data (consisting of POC and inhibitor concentration in μM) is fitted to a 4-parameter equation (y=A+((B−A)/(I+((x/C)ˆD))), where A is the minimum y (POC) value, B is the maximum y (POC), C is the x (cpd concentration) at the point of inflection and D is the slope factor) using a Levenburg-Marquardt non-linear regression algorithm.

| SMILES | pIC50 |
| --- | --- |
| CNCCC(=O)N1CCC(Nc2nccc(N3CCCc4cnc(-c5ccccc5)cc43)n2)CC1 [Example 15, 3-(Methylamino)-1-(4(4-(7-phenyl-3,4-dihydro-1,6-naphthyridin-1(2H)-yl)-pyrimidin-2-ylamino)piperdin-1-yl)propan-1-one] | ≥ 4.70 |
| NCC(=O)N1CCC(Nc2nccc(N3CCCc4cnc(-c5ccccc5)cc43)n2)CC1 [Example 13, 2-Amino-1-(4(4-(7-phenyl-3,4-dihydro-1,6-naphthyridin-1(2H)-yl)pyrimidin-2-yl-amino)piperdin-1-yl)ethanone] | ≥ 4.70 |
| CC(C)(CN)Nc1nccc(N2CCCc3cnc(-c4ccccc4)cc32)n1 [Example 41, N-(1-Amino-2-methylpropan-2-yl)-4-(7-phenyl-3,4-dihydro-1,6-naphthyridin-1(2H)-yl)pyrimidin-2-amine] | ≥ 4.70 |
| O=C(CC(F)(F)F)NC1CCC(Nc2nccc(N3CCCc4cnc(-c5ccccc5)cc43)n2)CC1 [Example 36, 3,3,3-Trifluoro-N-((1R,4R)-4-(4-(7-phenyl-3,4-dihydro-1,6-naphthyridin-1(2H)-yl)-pyrimidin-2-ylamino)cyclohexyl)propanamide] | ≥ 4.70 |
| CCOC(=O)c1cc2c(nc1-c1ccccc1)N(c1ccnc(NC3CCN(C(=O)OC(C)(C)C)CC3)n1)CCC2 [Example 74, Ethyl 8-(2-(1-(tert-butoxycarbonyl)piperidin-4-ylamino)pyrimidin-4-yl)-2-phenyl-5,6,7,8-tetrahydro-1,8-naphthyridine-3-carboxylate] | ≥ 4.70 |
| CC(C)NCC(C)(C)Nc1nccc(N2CCCc3cnc(-c4ccccc4)cc32)n1 [Example 43, N-(1-(Isopropylamino)-2-methylpropan-2-yl)-4-(7-phenyl-3,4-dihydro-1,6-naphthyridin-1(2H)-yl) pyrimidin-2-amine] | ≥ 4.70 |
| c1ccc(-c2ccc3c(n2)N(c2ccnc(NCCc4cccnc4)n2)CCC3)cc1 [Example 50, 4-(7-Phenyl-3,4-dihydro-1,8-naphthyridin-1(2H)-yl)-N-(2-(pyridin-3-yl)ethyl)-pyrimidin-2-amine] | ≥ 4.70 |
| CC(C)(C)CNc1nccc(N2CCCc3ccc(-c4ccccc4)nc32)n1 [Example 52, N-Neopentyl-4-(7-phenyl-3,4-dihydro-1,8-naphthyridin-1(2H)-yl)pyrimidin-2-amine] | ≥ 4.70 |
| C[C@@H](Cc1cccc(C(C)(C)N)c1)Nc1nccc(N2CCCc3cnc(-c4ccccc4)cc32)n1 [Example 39, (S)-N-(1-(3-(2-Aminopropan-2-yl)phenyl)propan-2-yl)-4-(7-phenyl-3,4-dihydro-1,6-naphthyridin-1(2H)-yl) pyrimidin-2-amine] | ≥ 4.70 |
| O=C(O)[C@@H](Cc1ccccc1)Nc1nccc(N2CCCc3cnc(-c4ccccc4)cc32)n1 [Example 18, (R)-3-Phenyl-2-(4-(7-phenyl-3,4-dihydro-1,6-naphthyridin-1(2H)-yl)pyrimidin-2-ylamino)propanoic acid] | ≥ 4.70 |
| CN(C)CC(C)(C)CNc1nccc(N2CCCc3ccc(-c4ccccc4)nc32)n1 [Example 51, N-(3-(Dimethylamino)-2,2-dimethylpropyl)-4-(7-phenyl-3,4-dihydro-1,8-naphthyridin-1(2H)-yl)pyrimidin-2-amine] | ≥ 4.70 |
| CCNCCC(=O)N1CCC(Nc2nccc(N3CCCc4cnc(-c5ccccc5)cc43)n2)CC1 [Example 16, 3-(Ethylamino)-1-(4(4-(7-phenyl-3,4-dihydro-1,6-naphthyridin-1(2H)-yl)pyrimidin-2-ylamino)piperdin-1-yl)propan-1-one] | ≥ 4.70 |
| CC(=O)N1CCC(Nc2nccc(N3CCCc4cnc(-c5ccccc5)cc43)n2)CC1 [Example 9, 1-(4-(4-(7-Phenyl-3,4-dihydro-1,6-naphthyridin-1(2H)-yl)pyrimidin-2-ylamino)-piperidin-1-yl)ethanone] | ≥ 4.70 |
| CC(=O)NC1CCC(Nc2nccc(N3CCCc4cnc(-c5ccccc5)cc43)n2)CC1 [Example 35, N-((1R,4R)-4-(4-(7-Phenyl-3,4-dihydro-1,6-naphthyridin-1(2H)-yl)pyrimidin-2-ylamino)cyclohexyl)acetamide] | ≥ 4.70 |
| COC(=O)[C@@H](Cc1ccccc1)Nc1nccc(N2CCCc3cnc(-c4ccccc4)cc32)n1 [Example 17, (R)-Methyl-3-phenyl-2-(4-(7-phenyl-3,4-dihydro-1,6-naphthyridin-1(2H)-yl)-pyrimidin-2-ylamino)propanoate] | ≥ 4.70 |
| CC(=O)N1CCC(Nc2nccc(N3CCCc4ncc(-c5ccccc5)cc43)n2)CC1 [Example 32, 1-(4-(4-(7-Phenyl-3,4-dihydro-1,5-naphthyridin-1(2H)-yl)pyrimidin-2-ylamino)-piperidin-1-yl)ethanone] | ≥ 4.70 |

Next, values leading:

| pIC50 | SMILES |
| --- | --- |
| ≥ 4.70 | CCOC(=O)c1cc2c(nc1-c1ccccc1)N(c1ccnc(N[C@H]3CC[C@H](N)CC3)n1)CCC2 [Example 75, Ethyl 8-(2-((1R,4R)-4-aminocyclohexylamino)pyrimidin-4-yl)-2-phenyl-5,6,7,8-tetrahydro-1,8-naphthyridine-3-carboxylate] |
| ≥ 4.70 | N[C@H]1CC[C@H](Nc2nccc(N3CCOc4cnc(-c5ccccc5)nc43)n2)CC1 [Example 102, (1R,4R)-N^1-(4-(2-Phenyl-6,7-dihydropyrimido[5,4-b][1,4]oxazin-8-yl)pyrimidin-2-yl)cyclohexane-1,4-diamine] |
| ≥ 4.70 | C[C@@H](Cc1cccc(C(C)(C)N)c1)Nc1nccc(N2CCOc3cnc(-c4ccccc4)nc32)n1 [Example 108, (S)-N-(1-(3-(2-Aminopropan-2-yl)phenyl)propan-2-yl)-4-(2-phenyl-6,7-dihydropyrimido[5,4-b][1,4]oxazin-8-yl)pyrimidin-2-amine] |
| ≥ 4.70 | CCOC(=O)c1cc2c(nc1-c1ccccc1)N(c1ccnc(NC(C)Cc3cccc(CO)c3)n1)CCC2 (stereo not shown) [Example 79, Ethyl 8-(2-(1-(3-(hydroxymethyl)phenyl)propan-2-ylamino)pyrimidin-4-yl)-2-phenyl-5,6,7,8-tetrahydro-1,8-naphthyridine-3-carboxylate] |
| ≥ 4.70 | C[C@@H](Cc1cccc([C@@H](C)N)c1)Nc1nccc(N2CCCc3ccc(-c4ccccc4)nc32)n1 [Example 91, N-((S)-1-(3-((R)-1-Aminoethyl)phenyl)propan-2-yl)-4-(7-phenyl-3,4-dihydro-1,8-naphthyridin-1(2H)-yl) pyrimidin-2-amine] |
| ≥ 4.70 | Cc1cc(N2CCCc3ccc(-c4ccccc4)nc32)nc(F)n1 [Example 59, 1-(2-Fluoro-6-methylpyrimidin-4-yl)-7-phenyl-1,2,3,4-tetrahydro-1,8-naphthyridine] |
| ≥ 4.70 | OCc1cc2c(nc1-c1ccccc1)N(c1ccnc(NCCc3ccccc3)n1)CCC2 [Example 67, (8-(2-(Phenethylamino)pyrimidin-4-yl)-2-phenyl-5,6,7,8-tetrahydro-1,8-naphthyridin-3-yl)methanol] |
| ≥ 4.70 | CC(=O)c1cc2c(nc1-c1ccccc1)N(c1ccnc(NCCc3ccccc3)n1)CCC2 [Example 72, 1-(8-(2-(Phenethylamino)pyrimidin-4-yl)-2-phenyl-5,6,7,8-tetrahydro-1,8-naphthyridin-3-yl)ethanone] |
| ≥ 4.70 | CNCc1cc2c(nc1-c1ccccc1)N(c1ccnc(NCCc3ccccc3)n1)CCC2 [Example 70, 4-(6-((Methylamino)methyl)-7-phenyl-3,4-dihydro-1,8-naphthyridin-1(2H)-yl)-N-phenethylpyrimidin-2-amine] |
